Measurements from PMC3119665, “A New Drug Design Targeting the Adenosinergic System for Huntington's Disease” (PLoS ONE, 2011).

Legend:
[1] = target: T1, Melanocortin MC3 (Homo sapiens, UniProt P41968); experiment: Radioligand binding panel (Table S1); settings: 10 μM T1-11, n 2
T1 construct: purchased MDS Pharma Services Taiwan

[2] = target: T2, Serotonin (5-Hydroxytryptamine) 5-HT6 (Homo sapiens, UniProt P50406); experiment: Radioligand binding panel (Table S1); settings: 10 μM T1-11, n 2
T2 construct: purchased MDS Pharma Services Taiwan
T2 sequence (P50406 whole entry): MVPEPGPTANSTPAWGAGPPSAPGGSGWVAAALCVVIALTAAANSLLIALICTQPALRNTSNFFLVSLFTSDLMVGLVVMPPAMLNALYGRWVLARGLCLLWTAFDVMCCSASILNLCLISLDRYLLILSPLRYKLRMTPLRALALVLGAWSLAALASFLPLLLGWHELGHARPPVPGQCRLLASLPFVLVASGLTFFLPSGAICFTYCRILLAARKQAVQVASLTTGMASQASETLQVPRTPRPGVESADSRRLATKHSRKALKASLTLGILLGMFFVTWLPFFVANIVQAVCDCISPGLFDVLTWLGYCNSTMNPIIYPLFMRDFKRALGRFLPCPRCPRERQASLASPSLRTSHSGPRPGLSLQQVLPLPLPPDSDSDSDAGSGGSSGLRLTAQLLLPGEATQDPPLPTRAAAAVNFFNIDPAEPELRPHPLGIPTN

[3] = target: T3, Dopamine D3 (Homo sapiens, UniProt P35462); experiment: Radioligand binding panel (Table S1); settings: 10 μM T1-11, n 2
T3 construct: purchased MDS Pharma Services Taiwan

[4] = system: Transporter, Monoamine; experiment: Radioligand binding panel (Table S1); set-up: species or system rabbit; settings: 10 μM T1-11, n 2
[5] = target: T4, Lipoxygenase 15-LO (Oryctolagus cuniculus, UniProt P12530); experiment: Radioligand binding panel (Table S1); set-up: species or system rabbit; settings: 10 μM T1-11, n 2
T4 construct: purchased MDS Pharma Services Taiwan

[6] = system: Inositol Trisphosphate IP3; experiment: Radioligand binding panel (Table S1); set-up: species or system rat; settings: 10 μM T1-11, n 2
[7] = target: T5, Adrenergic α 1D (Homo sapiens, UniProt P25100); experiment: Radioligand binding panel (Table S1); settings: 10 μM T1-11, n 2
T5 construct: purchased MDS Pharma Services Taiwan

[8] = target: T6, Prostanoid EP4 (Homo sapiens, UniProt P35408); experiment: Radioligand binding panel (Table S1); settings: 10 μM T1-11, n 2
T6 construct: purchased MDS Pharma Services Taiwan
T6 sequence (P35408 whole entry): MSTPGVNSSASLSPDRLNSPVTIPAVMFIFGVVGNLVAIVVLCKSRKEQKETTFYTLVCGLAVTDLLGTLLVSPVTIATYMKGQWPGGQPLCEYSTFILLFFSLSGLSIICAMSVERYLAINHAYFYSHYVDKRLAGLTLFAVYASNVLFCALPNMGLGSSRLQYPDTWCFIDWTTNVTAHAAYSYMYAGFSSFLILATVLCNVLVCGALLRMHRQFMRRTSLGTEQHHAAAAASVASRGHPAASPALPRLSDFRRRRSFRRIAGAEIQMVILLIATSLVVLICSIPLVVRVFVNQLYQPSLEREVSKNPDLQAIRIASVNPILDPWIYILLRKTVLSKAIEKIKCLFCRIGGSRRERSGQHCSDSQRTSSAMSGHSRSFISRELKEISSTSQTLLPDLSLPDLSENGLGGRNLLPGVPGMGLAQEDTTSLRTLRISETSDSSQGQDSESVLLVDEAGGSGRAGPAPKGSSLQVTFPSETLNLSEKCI

[9] = system: Glutamate, Kainate; experiment: Radioligand binding panel (Table S1); set-up: species or system rat; settings: 10 μM T1-11, n 2
[10] = system: striatal adenosine; experiment: In vivo brain dialysis and adenosine measurement; set-up: species or system mice; settings: T1-11 100 µM perfused through the dialysis probe
Description: The level of adenosine in the brain was determined using microdialysis as previously described, [73]. In brief, concentrated dialysis probes with 4-mm dialysis membranes (CMA, Stockholm, Sweden) were used to monitor the extracellular adenosine in the striatum of rats. After inducing anesthesia with chloral hydrate ([…], IP), rats were implanted with the probe, and the coordinates for implantation were AP +1.0 mm, LM +2.8 mm, and VD −6.5 mm. Ringer's solution (140 mM NaCl, 1.2 mM CaCl2, 3.0 mM KCl, 1.0 mM MgCl2, and 0.04 mM ascorbic acid) was continuously perfused (0.5 µl/min) via probes throughout the experiments. After implantation and perfusion for 1.5 h, the perfusate was collected for 1 h as a baseline and then Ringer's solution containing T1-11 (100 µM) was perfused for another 1 h. The perfusate was analyzed by high-performance liquid chromatography (HPLC; Agilent 1100 series, Germany) coupled with a photo diode array detector (Agilent G1315B,) at 260 nm. Separations were obtained with a reversed-phase column (Cosmosil 5C18-AR-II, 250×4.6 mm, Kyoto, Japan) eluted at a flow rate of 1.0 ml/min with a linear solvent gradient elution system composed of eluents A and B (A: 0.0085% H3PO4 in H2O; B: 100% acetonitrile) according to the following profile: 0∼15 min, 100%∼90% A, 0%∼10% B.

[11] = target: T7, Leukotriene, Cysteinyl CysLT1 (Homo sapiens, UniProt Q9Y271); experiment: Radioligand binding panel (Table S1); settings: 10 μM T1-11, n 2
T7 construct: purchased MDS Pharma Services Taiwan
T7 sequence (Q9Y271 whole entry): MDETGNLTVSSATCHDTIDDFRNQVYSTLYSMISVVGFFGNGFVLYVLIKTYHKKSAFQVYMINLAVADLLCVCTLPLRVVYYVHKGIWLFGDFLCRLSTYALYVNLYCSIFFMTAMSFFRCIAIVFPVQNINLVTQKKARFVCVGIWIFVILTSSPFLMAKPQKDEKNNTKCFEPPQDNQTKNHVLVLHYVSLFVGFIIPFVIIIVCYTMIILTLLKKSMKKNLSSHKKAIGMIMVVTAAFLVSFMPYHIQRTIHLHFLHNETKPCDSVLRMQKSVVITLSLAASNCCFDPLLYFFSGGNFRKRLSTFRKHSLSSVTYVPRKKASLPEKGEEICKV

[12] = system: R6/2 mice; experiment: In vivo 3D MRI imaging of brain atrophy in R6/2 mice; settings: 0.05 mg/ml in drinking water, five weeks
Description: Supplementary file pone.0020934.s005.tif: Figure S5 Effect of T1-11 on the shorten lifespan and enlarged ventricle of R6/2 mice. Animals were given the vehicle (1% DMSO; CON) or T1-11 (0.05 mg/ml)-containing drinking water from the age of 7 weeks. (A) Survival was assessed. Specific comparison to R6/2 mice treated with the vehicle (p = 0.306; Mantel-Cox test). (B) Five weeks after T1-11 treatment, 3D-lMRI was performed to determine the ventricle-to-brain ratio of the indicated animals as described. * p<0.05. (TIF) Click here for additional data file.

[13] = target: T8, Somatostatin sst4 (Homo sapiens, UniProt P31391); experiment: Radioligand binding panel (Table S1); settings: 10 μM T1-11, n 2
T8 construct: purchased MDS Pharma Services Taiwan
T8 sequence (P31391 whole entry): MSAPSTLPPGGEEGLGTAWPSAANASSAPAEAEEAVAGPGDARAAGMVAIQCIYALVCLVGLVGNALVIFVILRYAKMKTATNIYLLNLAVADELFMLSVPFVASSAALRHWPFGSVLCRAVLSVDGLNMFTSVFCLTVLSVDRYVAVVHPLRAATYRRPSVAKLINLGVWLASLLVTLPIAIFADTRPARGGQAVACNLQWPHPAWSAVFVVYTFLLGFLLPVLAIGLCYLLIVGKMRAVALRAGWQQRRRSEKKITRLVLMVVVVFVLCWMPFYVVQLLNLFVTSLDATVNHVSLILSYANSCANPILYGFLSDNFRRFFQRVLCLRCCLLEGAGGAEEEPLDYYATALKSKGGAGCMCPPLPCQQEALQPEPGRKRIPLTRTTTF

[14] = target: T9, A2AR (Mus musculus, UniProt Q60613); experiment: cAMP level in the brain after intraperitoneal injection; assay type: in vivo; settings: single intraperitoneal injection 5 mg/kg body weight, 60 min, wildtype and A2AR knockout mice
T9 construct: Brain tissues were carefully removed, and homogenized in 1 ml of assay buffer; from tissue; host or cells: brain of C57BL6 mice (in vivo dosing)
T9 sequence (Q60613 whole entry): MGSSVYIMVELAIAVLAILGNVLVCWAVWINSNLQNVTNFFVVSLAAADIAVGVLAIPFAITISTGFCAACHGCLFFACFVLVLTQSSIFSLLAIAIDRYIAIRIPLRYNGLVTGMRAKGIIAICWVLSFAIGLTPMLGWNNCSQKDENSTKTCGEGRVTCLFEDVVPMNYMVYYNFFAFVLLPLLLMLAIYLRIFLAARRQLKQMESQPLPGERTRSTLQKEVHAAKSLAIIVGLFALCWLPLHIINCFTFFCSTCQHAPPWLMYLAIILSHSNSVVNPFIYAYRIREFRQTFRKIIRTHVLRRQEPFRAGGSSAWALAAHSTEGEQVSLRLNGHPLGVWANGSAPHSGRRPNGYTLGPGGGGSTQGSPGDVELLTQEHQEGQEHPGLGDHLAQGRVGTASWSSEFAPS
Description: C57BL6 mice (8 weeks old) were intraperitoneally (i.p.) administrated with T1-11 (5 mg/kg body weight, n = 4) or vehicle for 60 min. Brain tissues were carefully removed, and homogenized in 1 ml of assay buffer (25 mM Tris (pH 8), 1 mM EGTA, 1 mM MgCl2, […], […], 10 nM okadaic acid, 1× EDTA free proteinase inhibitor cocktail (Roche), 0.5 mM IBMX, and […]). Trichloroacetic acid (6%, final concentration) was then added to the lysate to precipitate proteins. The cAMP level in the supernatant was analyzed as previously described.

[15] = target: T10, Somatostatin sst2 (Homo sapiens, UniProt P30874); experiment: Radioligand binding panel (Table S1); settings: 10 μM T1-11, n 2
T10 construct: purchased MDS Pharma Services Taiwan
T10 sequence (P30874 whole entry): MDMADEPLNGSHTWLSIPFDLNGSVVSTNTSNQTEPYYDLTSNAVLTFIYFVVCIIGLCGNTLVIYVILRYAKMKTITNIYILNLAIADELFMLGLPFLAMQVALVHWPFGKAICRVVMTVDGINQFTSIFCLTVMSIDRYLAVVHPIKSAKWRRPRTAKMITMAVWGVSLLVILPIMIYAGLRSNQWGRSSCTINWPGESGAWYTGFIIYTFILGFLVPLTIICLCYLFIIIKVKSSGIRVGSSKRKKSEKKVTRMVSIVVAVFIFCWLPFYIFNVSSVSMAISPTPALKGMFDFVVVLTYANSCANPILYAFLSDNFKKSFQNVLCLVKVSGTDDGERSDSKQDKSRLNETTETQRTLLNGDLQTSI

[16] = target: T11, Lipoxygenase 5-LO (Homo sapiens, UniProt P09917); experiment: Radioligand binding panel (Table S1); settings: 10 μM T1-11, n 2
T11 construct: purchased MDS Pharma Services Taiwan
T11 sequence (P09917 whole entry): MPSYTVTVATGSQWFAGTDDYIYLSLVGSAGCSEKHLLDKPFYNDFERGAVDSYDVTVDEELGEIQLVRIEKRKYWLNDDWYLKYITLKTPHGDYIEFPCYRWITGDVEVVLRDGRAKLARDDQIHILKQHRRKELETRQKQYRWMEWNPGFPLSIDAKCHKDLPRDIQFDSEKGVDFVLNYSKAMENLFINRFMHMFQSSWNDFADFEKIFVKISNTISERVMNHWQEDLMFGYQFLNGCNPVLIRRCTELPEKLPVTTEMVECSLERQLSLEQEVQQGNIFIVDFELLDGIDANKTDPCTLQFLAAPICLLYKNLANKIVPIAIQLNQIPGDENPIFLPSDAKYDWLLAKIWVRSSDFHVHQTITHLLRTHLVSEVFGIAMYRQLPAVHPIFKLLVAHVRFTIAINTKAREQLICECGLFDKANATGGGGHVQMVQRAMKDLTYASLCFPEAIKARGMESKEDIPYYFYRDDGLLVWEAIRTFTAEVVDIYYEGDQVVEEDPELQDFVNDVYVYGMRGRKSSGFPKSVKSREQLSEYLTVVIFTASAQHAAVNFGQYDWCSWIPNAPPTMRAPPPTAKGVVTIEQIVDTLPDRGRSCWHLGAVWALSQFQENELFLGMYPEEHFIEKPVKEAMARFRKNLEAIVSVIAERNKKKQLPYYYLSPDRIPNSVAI

[17] = target: T12, Melanocortin MC4 (Homo sapiens, UniProt P32245); experiment: Radioligand binding panel (Table S1); settings: 10 μM T1-11, n 2
T12 construct: purchased MDS Pharma Services Taiwan

[18] = target: T13, Chemokine CCR2B (Homo sapiens, UniProt P41597); experiment: Radioligand binding panel (Table S1); settings: 10 μM T1-11, n 2
T13 construct: purchased MDS Pharma Services Taiwan

[19] = target: T14, GABAB1A (Homo sapiens, UniProt Q9UBS5); experiment: Radioligand binding panel (Table S1); settings: 10 μM T1-11, n 2
T14 construct: purchased MDS Pharma Services Taiwan

[20] = target: T15, Muscarinic M1 (Homo sapiens, UniProt P11229); experiment: Radioligand binding panel (Table S1); settings: 10 μM T1-11, n 2
T15 construct: purchased MDS Pharma Services Taiwan
T15 sequence (P11229 whole entry): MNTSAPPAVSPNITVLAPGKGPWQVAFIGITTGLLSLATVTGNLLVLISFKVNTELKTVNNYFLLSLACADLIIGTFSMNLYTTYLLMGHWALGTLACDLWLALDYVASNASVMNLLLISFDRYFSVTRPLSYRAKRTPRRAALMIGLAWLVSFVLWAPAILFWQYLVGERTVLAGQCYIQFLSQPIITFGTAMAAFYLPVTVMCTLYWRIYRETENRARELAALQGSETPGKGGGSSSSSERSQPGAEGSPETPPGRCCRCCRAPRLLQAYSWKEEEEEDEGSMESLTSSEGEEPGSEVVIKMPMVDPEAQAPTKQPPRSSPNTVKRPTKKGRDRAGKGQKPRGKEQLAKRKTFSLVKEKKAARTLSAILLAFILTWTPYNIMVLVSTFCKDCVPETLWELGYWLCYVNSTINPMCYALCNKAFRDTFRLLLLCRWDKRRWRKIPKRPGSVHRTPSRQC

[21] = target: T16, Orphanin ORL1 (Homo sapiens, UniProt P41146); experiment: Radioligand binding panel (Table S1); settings: 10 μM T1-11, n 2
T16 construct: purchased MDS Pharma Services Taiwan
T16 sequence (P41146 whole entry): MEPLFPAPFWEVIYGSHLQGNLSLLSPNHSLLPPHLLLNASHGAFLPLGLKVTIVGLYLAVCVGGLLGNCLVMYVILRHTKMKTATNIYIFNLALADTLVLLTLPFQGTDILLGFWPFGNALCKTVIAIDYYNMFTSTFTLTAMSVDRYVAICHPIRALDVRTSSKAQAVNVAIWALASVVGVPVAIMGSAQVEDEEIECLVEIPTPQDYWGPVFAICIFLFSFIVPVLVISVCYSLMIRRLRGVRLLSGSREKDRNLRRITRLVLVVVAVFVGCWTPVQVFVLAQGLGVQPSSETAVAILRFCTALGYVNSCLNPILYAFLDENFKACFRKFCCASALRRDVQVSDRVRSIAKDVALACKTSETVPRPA

[22] = system: Phorbol Ester; experiment: Radioligand binding panel (Table S1); set-up: species or system mouse; settings: 10 μM T1-11, n 2
[23] = target: T17, Galanin GAL2 (Homo sapiens, UniProt O43603); experiment: Radioligand binding panel (Table S1); settings: 10 μM T1-11, n 2
T17 construct: purchased MDS Pharma Services Taiwan
T17 sequence (O43603 whole entry): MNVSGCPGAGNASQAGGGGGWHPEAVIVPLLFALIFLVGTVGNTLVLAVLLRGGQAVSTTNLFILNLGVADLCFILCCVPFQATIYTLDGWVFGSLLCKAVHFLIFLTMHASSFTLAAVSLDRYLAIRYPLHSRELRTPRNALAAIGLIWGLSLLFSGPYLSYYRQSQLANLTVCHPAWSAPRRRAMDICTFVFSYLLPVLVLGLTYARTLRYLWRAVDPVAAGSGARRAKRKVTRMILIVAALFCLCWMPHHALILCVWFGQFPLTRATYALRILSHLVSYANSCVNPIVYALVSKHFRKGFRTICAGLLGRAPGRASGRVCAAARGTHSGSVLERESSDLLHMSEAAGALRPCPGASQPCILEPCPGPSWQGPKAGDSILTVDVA

[24] = target: T18, Vitamin D3 (Homo sapiens, UniProt P11473); experiment: Radioligand binding panel (Table S1); settings: 10 μM T1-11, n 2
T18 construct: purchased MDS Pharma Services Taiwan

[25] = target: T19, Cannabinoid CB2 (Homo sapiens, UniProt P34972); experiment: Radioligand binding panel (Table S1); settings: 10 μM T1-11, n 2
T19 construct: purchased MDS Pharma Services Taiwan
T19 sequence (P34972 whole entry): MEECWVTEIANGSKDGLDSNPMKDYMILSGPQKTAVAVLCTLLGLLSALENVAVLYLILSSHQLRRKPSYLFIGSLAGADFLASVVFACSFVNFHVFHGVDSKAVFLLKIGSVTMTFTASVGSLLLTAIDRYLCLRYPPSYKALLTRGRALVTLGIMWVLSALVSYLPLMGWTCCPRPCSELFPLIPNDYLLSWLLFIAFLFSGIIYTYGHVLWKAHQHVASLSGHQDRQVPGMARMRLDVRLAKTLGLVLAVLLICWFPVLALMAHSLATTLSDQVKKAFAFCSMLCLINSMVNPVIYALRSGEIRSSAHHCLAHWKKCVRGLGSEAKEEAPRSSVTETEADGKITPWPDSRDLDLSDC

[26] = system: Adrenergic β, Non-Selective; experiment: Radioligand binding panel (Table S1); set-up: species or system rat; settings: 10 μM T1-11, n 2
[27] = target: T20, Calcitonin Gene-Related, Peptide CGRP1 (Homo sapiens, UniProt O60894+Q16602); experiment: Radioligand binding panel (Table S1); settings: 10 μM T1-11, n 2
T20 construct: purchased MDS Pharma Services Taiwan

OC[C@H]1O[C@@H](n2cnc3c(NCc4ccc(O)cc4)ncnc32)[C@H](O)[C@@H]1O [T1-11, N ^6-(4-hydroxybenzyl)adenine riboside]
inhibition at 10 µM [1]: 3% | inhibition at 10 µM [2]: 12% | inhibition at 10 µM [3]: -7% | % Inhibition [4]: -6% | inhibition at 10 µM [5]: 14% | % Inhibition [6]: 3% | inhibition at 10 µM [7]: 8% | inhibition at 10 µM [8]: -6% | % Inhibition [9]: 11% | Level of striatal adenosine (microdialysis) [10]: significantly enhanced the level of striatal adenosine | inhibition at 10 µM [11]: -4% | Brain atrophy (3D MRI) [12]: slightly ameliorated the brain atrophy of R6/2 mice but the improvement did not reach statistic significance | inhibition at 10 µM [13]: 5% | cAMP levels in the brain [14]: increased cAMP levels in the brains of wildtype, but not A2AR knockout | inhibition at 10 µM [15]: 9% | inhibition at 10 µM [16]: 25% | inhibition at 10 µM [17]: 5% | inhibition at 10 µM [18]: 0% | inhibition at 10 µM [19]: -1% | inhibition at 10 µM [20]: -1% | inhibition at 10 µM [21]: 10% | % Inhibition [22]: 9% | inhibition at 10 µM [23]: 0% | inhibition at 10 µM [24]: 6% | inhibition at 10 µM [25]: -2% | % Inhibition [26]: 10% | inhibition at 10 µM [27]: 6%
